Assays:
[1] = system: castrated rats, levator ani, seminal vesicles (SV) and prostate; assay: Levator ani & wet prostate weight assay, AR agonist assay; format: in vivo, rat; conditions: for EC50 (organ weight increase): castrated rats
Description: The activity of compounds of the present invention as AR agonists is investigated in an immature male rat model, a recognized test of anabolic effects in muscle and sustaining effects in sex organs for a given compound, as described in L. G. Hershberger et al., Proc. Soc. Expt. Biol. Med., 83, 175 (1953); B. L. Beyler et al, “Methods for evaluating anabolic and catabolic agents in laboratory animals”, J. Amer. Med. Women's Ass., 23, 708 (1968); H. Fukuda et al., “Investigations of the levator ani muscle as an anabolic steroid assay”, Nago Dai. Yak. Ken. Nem. 14, 84 (1966) the disclosures of which are herein incorporated by reference.
The basis of this assay lies in the well-defined action of androgenic agents on the maintenance and growth of muscle tissues and sexual accessory organs in animals and man. Androgenic steroids, such as testosterone (T), have been well characterized for their ability to maintain muscle mass. Treatment of animals or humans after castrations with an exogenous source of T results in a reversal of muscular atrophy. The effects of T on muscular atrophy in the rat levator ani muscle have been well characterized. M. Masuoka et al., “Constant cell population in normal, testosterone deprived and testosterone stimulated levator ani muscles” Am. J. Anat. 119, 263 (1966); Z. Gori et al., “Testosterone hypertrophy of levator ani muscle of castrated rats. I. Quantitative data” Boll.-Soc. Ital. Biol. Sper. 42, 1596 (1966); Z. Gori et al., “Testosterone hypertrophy of levator ani muscle of castrated rats. II. Electron-microscopic observations” Boll.-Soc. Ital. Biol. Sper. 42, 1600 (1966); A. Boris et al., Steroids 15, 61 (1970). As described above, the effects of androgens on maintenance of male sexual accessory organs, such as the prostate and seminal vesicles, is well described. Castration results in rapid involution and atrophy of the prostate and seminal vesicles. This effect can be reversed by exogenous addition of androgens. […]

[2] = system: immature castrated rats, ventral prostate (VP) and seminal vesicles (SV); assay: Wet prostate weight assay, AR antagonist assay; format: in vivo, rat; conditions: for EC50 (organ weight increase): immature castrated rats
Description: Biol. Med., 83, 175 (1953); P. C.
The basis of this assay is the fact that male sexual accessory organs, such as the prostate and seminal vesicles, play an important role in reproductive function. These glands are stimulated to grow and are maintained in size and secretory function by the continued presence of serum testosterone (T), which is the major serum androgen (>95%) produced by the Leydig cells in the testis under the control of the pituitary luteinizing hormone (LH) and follicle stimulating hormone (FSH). […] Adrenal androgens also contribute about 20% of total DHT in the rat prostate, compared to 40% of that in 65-year-old men. F. Labrie et al. Clin. Invest. Med., 16, 475-492 (1993). However, this is not a major pathway, since in both animals and humans, castration leads to almost complete involution of the prostate and seminal vesicles without concomitant adrenalectomy. […] […] […] Since the male sex organs are the tissues most responsive to modulation of the androgen activity, this model is used to determine the androgen dependent growth of the sex accessory organs in immature castrated rats.
Five days after surgery these castrated rats (60-70 g, 23-25 day-old) are dosed for 3 days. […] Animals are dosed (v/w) at 0.5 ml of vehicle/100 g body weight. […] Control vehicle • 2.
At the end of the 3-day treatment, the animals are sacrificed, and the ventral prostate weighed. To compare data from different experiments, the sexual organs weights are first standardized as mg per 100 g of body weight, and the increase in organ weight induced by TP was considered as the maximum increase (100%). ANOVA followed by one-tailed Student or Fischer's exact test is used for statistical analysis.
The gain and loss of sexual organ weight reflect the changes of the cell number (DNA content) and cell mass (protein content), depending upon the serum androgen concentration. See Y. Okuda et al., J. Urol., 145, 188-191 (1991), the disclosure of which is herein incorporated by reference. Therefore, measurement of organ wet weight is sufficient to indicate the bioactivity of androgens and androgen antagonist.

[3] = target: endogenous glucocorticoid receptor (Homo sapiens, UniProt P04150); conditions: concentration of ≦10 μM; 10 ng/ml PMA; A549 cells
Procedure: Cells are plated the day before the assay at approximately 40000 cells/well. […] Activity is measured by analysis in a luminometer as compared to control experiments treated with buffer or dexamethasome.

endogenous glucocorticoid receptor, sequence (P04150 whole entry): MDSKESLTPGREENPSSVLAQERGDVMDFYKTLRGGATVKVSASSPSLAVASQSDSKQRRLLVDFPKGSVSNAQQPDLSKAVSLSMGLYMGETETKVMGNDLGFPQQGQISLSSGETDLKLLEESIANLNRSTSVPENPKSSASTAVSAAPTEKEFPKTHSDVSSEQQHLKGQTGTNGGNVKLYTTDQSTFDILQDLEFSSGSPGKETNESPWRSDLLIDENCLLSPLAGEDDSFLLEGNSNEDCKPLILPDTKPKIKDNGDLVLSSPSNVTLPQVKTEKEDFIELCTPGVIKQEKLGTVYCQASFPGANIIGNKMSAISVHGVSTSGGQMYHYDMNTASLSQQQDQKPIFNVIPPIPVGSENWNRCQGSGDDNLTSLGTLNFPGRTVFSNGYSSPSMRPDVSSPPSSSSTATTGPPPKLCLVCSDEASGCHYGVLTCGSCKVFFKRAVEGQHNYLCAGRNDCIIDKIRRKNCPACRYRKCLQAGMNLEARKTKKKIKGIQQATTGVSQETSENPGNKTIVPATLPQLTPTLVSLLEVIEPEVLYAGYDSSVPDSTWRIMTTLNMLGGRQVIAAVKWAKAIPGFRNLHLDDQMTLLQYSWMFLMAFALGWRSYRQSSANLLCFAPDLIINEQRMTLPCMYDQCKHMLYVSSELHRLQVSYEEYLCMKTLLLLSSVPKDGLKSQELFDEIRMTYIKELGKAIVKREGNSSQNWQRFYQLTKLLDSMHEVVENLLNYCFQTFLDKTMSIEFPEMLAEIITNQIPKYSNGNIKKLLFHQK

Compound	EC50 (organ weight increase) [1]	EC50 (organ weight increase) [2]	potency higher than free T ([1]; rat, in vivo)	ED80 ([2]; immature castrated rat model)	potency higher than free T ([2]; rat, in vivo)	suppression of activity (% inhibition of the reporter system vs buffer control with PMA) [3]
C[C@]12CC[C@H]3[C@@H](CCC4=CC(=O)CC[C@@]43C)[C@@H]1CC[C@@H]2O [T, testosterone]	about 1 mg	about 1 mg				
CCC(=O)O[C@H]1CC[C@H]2[C@@H]3CCC4=CC(=O)CC[C@]4(C)[C@H]3CC[C@]12C [TP, testosterone propionate]	~0.03 mg	~0.03 mg	10-30 fold	0.1 mg	10-30 fold	
C[C@@H]1C[C@H]2[C@@H]3CCC4=CC(=O)C=C[C@]4(C)[C@@]3(F)[C@@H](O)C[C@]2(C)[C@@]1(O)C(=O)CO [dexamethasone]						65%

Source: US20050124625A1, “Piperazine derivatives and their use as modulators of nuclear hormone receptor function” (priority 2003, published 2005)
